Data: US20060148732A1, “Inhibition of NF-kappaB by triterpene compositions” (priority 2000, published 2006)

Key:
SKH-1 hairless mice = assay: UVB-induced skin lesions; type: in vivo, mouse; details: UVB-irradiated SKH-1 mice; topical, 15 min before UVB
Method: In the study, SKH-1 hairless mice are irradiated with UVB radiation at the dose of 1.8 kJ/m^2 for up to 15 min. Mice are pretreated with two different doses of F035 of (2 mg and 4 mg per dose) as well as negative controls (F060 or acetone alone). It is believed a minimum of 10 mice per group are needed to obtain statistically meaningful results. […] The studies are conducted for a short period of time to evaluate the preventive effect of the compounds. It is not expected to see visible tumors, even with UVB alone, only skin lesions within the specified time-frame. A slight erythema (minor redness of the skin) may be observed, which should disappear the next day after irradiation.
The UV apparatus used has eight Westinghouse FS40 sunlamps, an IL-1400A radiometer/photometer, and an attached IL-1403 UVB phototherapy radiometer with a SEL 240/UVB-1/TD detector. The middle part has several chambers, each holding an individual mouse. There are holes inside the chambers for proper ventilation while mice are being irradiated. The chambers rotate in circular motion during irradiation so each mouse is exposed to UVB light uniformly. […] The amount of the UVB exposure will be measured with a UVB radiometer. […]
Methods. […] The relative efficacy of the treatment was evaluated utilizing endpoints of epidermal thickness, leukocyte invasion, labeling (with BrdU) index, p53 mutations and 8-OH-dG formation. […]

PARP in Jurkat cells = assay: Immunoblot analysis of PARP degradation; type: cell-based, human
Method: Apoptosis induced by F035 & D1 was examined by proteolytic cleavage of poly (ADP-ribose) polymerase (PARP). Jurkat cells (2×10^6/ml) were treated with F035 (2 μg/ml) and D1 (2 μg/ml) for different lengths of time. Cell lysates were prepared in buffer containing 20 mM HEPES, 250 mM NaCl, 2 mM EDTA, 0.1% NP-40, 2 μg/ml leupeptin, 2 μg/ml aprotinin, 0.5 μg/ml benzamidine, 1 mM DTT and 1 mM PMSF. Cellular proteins (60 μg/ml) were separated on a 7.5% SDS polyacrylamide gel and electrotransferred onto a nitrocellulose membrane. The membrane was probed first with monclonal anti-PARP antibody (PharMingen) and then with anti-mouse antibody conjugated to horse radish peroxidase (HRPO). Protein bands were detected by chemiluminescense (ECL, Amersham). The extent of cleavage of the 116-kDa PARP into 85-kDa and 41-kDa peptide products was used as a measure of apoptosis (Tewari et al., 1995).
Immunoblot Analysis of PARP Degradation. Induction of apoptosis was also examined by proteolytic cleavage of PARP (Nicholson and Thornberry, 1997). Jurkat cells (3×10^6) were treated with 2 μg/ml of F094, avicin D, or avicin G at 37° C. Cell lysates were prepared in a buffer containing 20 mM HEPES, 250 mM NaCl, 2 mM EDTA, 0.1% NP-40, 2 μg/ml leupeptin, 2 μg/ml aprotinin, 0.5 μg/ml benzamidine, 1 mM DTT, and 1 mM PMSF. Cellular proteins (60 μg/ml) were separated on a 7.5% SDS polyacrylamide gel and electrotransferred onto a nitrocellulose membrane. The membrane was probed first with monoclonal anti-PARP antibody (Pharmingen) and then with anti-mouse antibody conjugated to horseradish peroxidase (HRPO). Protein bands were detected by chemiluminescence (ECL). The appearance of an 85 kDa cleavage product was used as a measure of apoptosis.

[1] = test system: mitochondrial fraction of Jurkat cells; assay: Cytochrome c release in a cell free system; type: biochemical, human; details: isolated mitochondria; 25 μM pretreatment
Method: Isolation of the Submitochondrial Fraction. Jurkat cells (1.5-2.0×10^7) were suspended in 1 ml sucrose buffer (250 mM sucrose in 30 mM Tris-HCl pH 7.4) and transferred into an N2 cavitation chamber (PARR Instruments Company, Moline, Ill.). The cells were subjected to N2 cavitation (300 psi for 5 min) as per the manufacturer's instructions. Under these conditions most of the cell membrane was disrupted with no change in the mitochondrial respiratory activity. Next, DNA and the nuclear fraction were removed by centrifugation (1500 g, 30 sec). The supernatant was further centrifuged (16000 g, 10 min) and the pellet was used as the submitochondrial fraction.
To observe if monoterpene/triterpenoid saponins directly affected mitochondria to induce apoptosis, experiments were carried out using avicin G in a cell free system. Mitochondria were isolated from Jurkat cells by the N2 cavitation method.

Q: Which “decrease in number of cycling cells (BrdU labeling)” value (SKH-1 hairless mice) does the source give for Vitamin E here?
A: The value was 30%.

Q: For “z-Val-Ala-Asp-CH2F [z-vad fmk, reference compound]”, which “effect on cleavage of PARP induced by F094 or avicins” value (PARP in Jurkat cells; 100 μM pretreatment 1 hour) is on record?
A: The value was “totally blocked the cleavage of PARP”.

Q: What about the “effect on F035 induced cleavage of PARP” value (PARP in Jurkat cells; 100 μM pretreatment for 1 h) of the same substance?
A: Its value is “completely reversed”.

Q: And the “effect on avicin G induced cytochrome c release” value [1]?
A: Its value is “did not affect the release of cytochrome c”.
